Assays:
B16F10 melanoma = test: Tumor growth delay and survival, B16F10 melanoma in C57BL/6 mice; format: in vivo, mouse
Method: (§1) All animal experiments conducted in this study were approved by Duke University Institutional Animal Use and Care Committee. C57BL/6J and Balb/C, mice were purchased from The Jackson Laboratory. NSG mice were purchased from Division of Laboratory Animal Resources (DLAR) of Duke University. Prior to tumor cell injection, age-matched 6-8 weeks old mice were shaved at one of the flanks. Tumor cells were then injected into shaved flanks subcutaneously with Lenti-CRISPRv2 modified control or target gene-specific knockout tumor cells. Tumor volumes were measured every 2-3 days and calculated by the formula: […]. The mice were sacrificed when tumors reached 2000 mm^3.
(§2) For antibody treatments, mice were given 100 μg antibody via intraperitoneal (i.p.) injection at day 6, 9, 12 post tumor cells injection using following antibodies: anti-PD1 (clone 29F.1A12) or isotype (clone 2A3) from BioXCell.

p-TBK [1] = test: Western blot of p-TBK in B16 cells; format: cell-based, mouse
Method: (§3) Cells lysates were boiled in sodium dodecyl sulfate (SDS) sample loading buffer, resolved by 10% SDS-polyacrylamide gel electrophoresis (SDS-PAGE) and transferred to nitrocellulose. The membranes were blocked in 5% milk in Tris-buffered saline and Tween 20 (TBST; 10 mM Tris-HCl [pH 8.0], 150 mM NaCl, 0.1% Tween 20) for 1 hr at room temperature. After washing twice with TBST, the membranes were incubated with appropriate primary antibodies in BSA/TBST for overnight and then washed three times with TBST, probed with horseradish […] anti-immunoglobulin (1:5000 dilution) for 1 hr at room temperature. After three washes with TBST, immunoreacted products were visualized using enhanced chemiluminescence reagent and autoradiography.

[2] = tested on: mitochondrial DNA (mtDNA) release; test: Q-PCR of mtDNA in digitonin cytosolic extracts of B16F10 cells; format: cell-based, mouse; details: 1 μM AZD1390 for 48 hours, FIGS. 59, 60
glioma = details: preclinical models; Durant et al. Sci Adv 2018; cited from earlier work
ATM kinase = ATM kinase (Homo sapiens, UniProt Q13315); details: Durant et al. Sci Adv 2018; cited from earlier work
Sequence of ATM kinase (Q13315 whole entry): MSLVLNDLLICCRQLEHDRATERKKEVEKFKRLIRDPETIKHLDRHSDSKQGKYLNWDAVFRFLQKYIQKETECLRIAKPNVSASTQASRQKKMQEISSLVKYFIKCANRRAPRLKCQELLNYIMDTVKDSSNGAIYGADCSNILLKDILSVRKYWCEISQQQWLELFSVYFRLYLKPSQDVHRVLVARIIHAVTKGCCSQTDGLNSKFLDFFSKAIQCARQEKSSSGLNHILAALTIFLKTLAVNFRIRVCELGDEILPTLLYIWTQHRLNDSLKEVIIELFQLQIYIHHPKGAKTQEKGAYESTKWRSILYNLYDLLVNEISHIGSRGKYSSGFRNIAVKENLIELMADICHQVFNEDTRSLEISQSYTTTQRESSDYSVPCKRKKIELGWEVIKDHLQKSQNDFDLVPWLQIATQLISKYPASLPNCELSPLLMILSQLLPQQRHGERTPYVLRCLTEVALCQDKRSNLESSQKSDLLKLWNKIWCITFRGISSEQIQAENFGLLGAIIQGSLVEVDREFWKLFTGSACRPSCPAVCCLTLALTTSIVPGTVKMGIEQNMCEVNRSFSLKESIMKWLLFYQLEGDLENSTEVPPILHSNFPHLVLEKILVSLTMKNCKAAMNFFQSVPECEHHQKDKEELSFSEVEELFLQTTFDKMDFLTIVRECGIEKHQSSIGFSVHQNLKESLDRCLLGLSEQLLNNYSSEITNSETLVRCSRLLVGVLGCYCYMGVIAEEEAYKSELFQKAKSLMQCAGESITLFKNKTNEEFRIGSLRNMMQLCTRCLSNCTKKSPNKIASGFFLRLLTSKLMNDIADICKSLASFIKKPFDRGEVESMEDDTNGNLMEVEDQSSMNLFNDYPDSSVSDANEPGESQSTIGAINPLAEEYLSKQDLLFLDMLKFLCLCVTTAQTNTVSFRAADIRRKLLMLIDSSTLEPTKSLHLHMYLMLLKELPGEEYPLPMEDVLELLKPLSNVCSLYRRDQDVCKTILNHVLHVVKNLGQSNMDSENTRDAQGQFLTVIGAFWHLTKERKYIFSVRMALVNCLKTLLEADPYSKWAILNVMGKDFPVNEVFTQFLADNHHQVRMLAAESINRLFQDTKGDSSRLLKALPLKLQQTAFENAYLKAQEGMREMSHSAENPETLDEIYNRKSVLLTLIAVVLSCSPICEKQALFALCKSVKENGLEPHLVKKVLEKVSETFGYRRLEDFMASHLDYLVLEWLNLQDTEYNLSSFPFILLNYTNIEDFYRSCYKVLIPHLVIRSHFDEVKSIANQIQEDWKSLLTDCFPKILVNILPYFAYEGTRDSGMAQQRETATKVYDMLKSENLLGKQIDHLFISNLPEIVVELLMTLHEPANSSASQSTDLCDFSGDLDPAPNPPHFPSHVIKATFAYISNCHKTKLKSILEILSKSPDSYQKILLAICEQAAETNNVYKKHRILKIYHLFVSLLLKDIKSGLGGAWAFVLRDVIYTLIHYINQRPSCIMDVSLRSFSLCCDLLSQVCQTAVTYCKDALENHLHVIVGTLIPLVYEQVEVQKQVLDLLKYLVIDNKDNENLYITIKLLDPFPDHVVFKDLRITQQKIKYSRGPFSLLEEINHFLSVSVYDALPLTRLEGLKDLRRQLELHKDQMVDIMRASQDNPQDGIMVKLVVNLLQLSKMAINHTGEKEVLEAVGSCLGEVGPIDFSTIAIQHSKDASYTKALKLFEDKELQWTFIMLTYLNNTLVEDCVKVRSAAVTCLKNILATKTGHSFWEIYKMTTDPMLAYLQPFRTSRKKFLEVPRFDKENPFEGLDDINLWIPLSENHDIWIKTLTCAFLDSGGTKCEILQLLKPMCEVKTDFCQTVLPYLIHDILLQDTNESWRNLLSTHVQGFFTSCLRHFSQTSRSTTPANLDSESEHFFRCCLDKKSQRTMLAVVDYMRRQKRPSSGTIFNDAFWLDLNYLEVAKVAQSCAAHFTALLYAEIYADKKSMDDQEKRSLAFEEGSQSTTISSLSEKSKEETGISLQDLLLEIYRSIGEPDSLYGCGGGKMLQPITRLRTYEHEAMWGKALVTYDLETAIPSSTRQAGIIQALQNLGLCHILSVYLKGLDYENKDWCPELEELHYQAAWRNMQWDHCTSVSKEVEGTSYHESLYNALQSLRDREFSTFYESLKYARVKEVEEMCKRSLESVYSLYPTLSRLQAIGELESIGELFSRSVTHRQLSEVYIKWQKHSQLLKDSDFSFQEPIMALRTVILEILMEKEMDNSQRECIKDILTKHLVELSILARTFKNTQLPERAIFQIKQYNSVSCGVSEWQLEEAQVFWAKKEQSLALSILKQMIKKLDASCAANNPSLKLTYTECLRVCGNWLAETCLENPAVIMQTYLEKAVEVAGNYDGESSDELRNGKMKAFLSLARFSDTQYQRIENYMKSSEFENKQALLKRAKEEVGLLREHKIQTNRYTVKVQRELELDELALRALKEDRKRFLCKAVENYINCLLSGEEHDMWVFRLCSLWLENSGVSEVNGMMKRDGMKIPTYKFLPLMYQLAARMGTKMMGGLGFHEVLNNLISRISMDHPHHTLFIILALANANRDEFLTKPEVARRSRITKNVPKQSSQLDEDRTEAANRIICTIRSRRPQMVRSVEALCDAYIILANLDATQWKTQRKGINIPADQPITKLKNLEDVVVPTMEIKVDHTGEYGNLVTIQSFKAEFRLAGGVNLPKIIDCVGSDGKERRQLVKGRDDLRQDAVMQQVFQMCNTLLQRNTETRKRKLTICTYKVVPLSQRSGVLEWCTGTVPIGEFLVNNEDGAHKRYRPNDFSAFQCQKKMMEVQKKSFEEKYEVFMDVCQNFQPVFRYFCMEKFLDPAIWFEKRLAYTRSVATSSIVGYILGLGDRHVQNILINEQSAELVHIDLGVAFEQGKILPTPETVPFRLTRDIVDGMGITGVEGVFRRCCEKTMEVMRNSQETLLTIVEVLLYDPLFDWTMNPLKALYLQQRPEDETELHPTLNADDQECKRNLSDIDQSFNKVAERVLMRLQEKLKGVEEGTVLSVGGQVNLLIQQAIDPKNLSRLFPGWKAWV

4T1 tumor = test: Tumor growth delay and survival, 4T1 tumors in Balb/c mice; format: in vivo; details: 4T1, Balb/c; anti-PD1 100 μg/mouse days 6, 9, 12 or AZD1390 10 mg/kg daily days 4-14; FIGS. 27, 28
Method: as §1, §2

[3] = tested on: pro-inflammatory cytokine genes involved in cellular innate immunity; test: Q-RT-PCR of cytokine mRNA in wild type 4T1 cells treated with ATM inhibitors; format: cell-based, mouse; details: FIG. 10
Method: (§4) Total RNA was extracted from cells by use of RNeasy Mini Kit (Qiagen) according to manufacturer's instructions. RNA was subjected to cDNA synthesis with random hexamer primers using Superscript II reverse transcriptase (Invitrogen). Quantitative real-time PCR was performed using Quanti Test SYBR Green PCR Master Mix Kit (Qiagen). Primers used for different target genes are listed in the Sequences section herein.

cGAS-STING = test: Ethidium bromide mtDNA depletion, cGAS-STING activation in B16F10 cells; format: cell-based, mouse; details: wild-type B16F10, 100 ng/ml ethidium bromide 20 days, then 1 μM AZD1390 48 hr; FIG. 103
Method: as §3
A previously published protocol was used (White, M. J. et al. Cell (2014) doi:10.1016/j.cell1.2014.11.036). Vector control, ATM KO and wild-type B16 cells were cultured in Dulbecco's modified Eagle's medium (DMEM) with 10% FBS. About 100 ng/ml ethidium bromide was added to the medium for 20 days before the cells were harvested for experiments.
Total RNA was extracted from cells by use of RNeasy Mini Kit (Qiagen) according to manufacturer's instructions. […] Quantitative real-time PCR was performed using Quanti Test SYBR Green PCR Master Mix Kit (Qiagen). […]

ISGs = test: qRT-PCR of ISGs in B16F10 cells; format: cell-based, mouse
Method: as §4

p-TBK [4] = test: Western blot of p-TBK in MDA-MB-231 cells; format: cell-based; details: human MDA-MB-231 cells, Ku55933 for 6 hours; FIG. 91
Method: as §3

Row | SMILES | enhancement of anti-tumor efficacy of the anti-PD1 antibody (B16F10 melanoma; B16F10, C57BL/6, AZD1390 10 mg/kg daily days 4-14 plus anti-PD1 100 μg/mouse days 6, 9, 12, FIGS. 25, 26) | enhancement of tumor suppression mediated by an anti-PD1 antibody (B16F10 melanoma; B16F10 melanoma, anti-PD1 100 μg/mouse and AZD1390 2.5 mg/Kg, FIG. 11) | effect on tumor growth, single agent (B16F10 melanoma; B16F10 tumors, C57BL/6, AZD1390 alone 10 mg/kg daily days 4-14, FIG. 25) | phosphorylation of TBK (p-TBK [1]; AZD1390 at indicated concentrations for 48 hrs, FIG. 45) | mitochondrial DNA (mtDNA) release [2] | enhancement of radiotherapy of glioma (glioma) | ATM kinase inhibitor character (ATM kinase) | effect on tumor growth, single agent (4T1 tumor) | pro-inflammatory cytokine gene expression [3] | cGAS-STING activation (pTBK) induced by AZD1390 after EtBr-induced depletion of mtDNA (cGAS-STING) | expression of ISGs (ISGs; 1 μM AZD1390 for 48 hrs, FIG. 46) | expression of p-TBK (p-TBK [4]) | phosphorylation of TBK (p-TBK [1]; Ku55933 indicated concentrations 6 hours, or 5 μM at indicated times, FIGS. 88, 89) | expression of ISGs (ISGs; 10 μM Ku55933 for 9 hours (IFIT1, CCL5), FIG. 90)
1 | CC(C)n1c(=O)n(C)c2cnc3cc(F)c(-c4ccc(OCCCN5CCCCC5)nc4)cc3c21 [AZD1390] | significantly enhanced | significantly enhanced tumor suppression | almost negligible effect | induced increased phosphorylation of TBK | induced mitochondrial DNA (mtDNA) release | significantly enhanced radiotherapy of glioma | potent and selective | more significant tumor-suppressive effect | induce the pro-inflammatory cytokine genes | abrogated | induced expression of ISGs |  |  | 
2 | O=c1cc(-c2cccc3c2Sc2ccccc2S3)oc(N2CCOCC2)c1 [Ku55933] |  |  |  |  |  |  |  |  | induce the pro-inflammatory cytokine genes |  |  | induced expression of p-TBK | induced increased phosphorylation of TBK | induced expression of ISGs

From US12558351B2, “Compositions and methods for enhancing cancer immune checkpoint therapy” (DUKE UNIVERSITY, priority 2019, dated 2026)
